Each structure is given as a SMILES string.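 Method: 48-hour compound exposure of cells in 96-well plates, five concentrations, linear interpolation of endpoints. Here, GI50 denotes the concentration required for 50% inhibition of growth.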 Calls of active or inactive are those of the source. Rule as the data show it: active = GI50 up to about 1.1 µM and inactive = higher. A value given as a limit tells only on which side of the number the result lay.

Common to all, as to experiment: DTP human tumour cell line panel, 48 h
Experiment [1] deals with 786-0.
For experiment [2], the system named is A549.
For experiment [3], the system named is BT-549.
Experiment [4] concerns CAKI-1.
Experiment [5] relates to HCT-15.
The test system of experiment [6] is KM12.
Experiment [7] has as its system M14.
Experiment [8] has as its system MCF7.
Experiment [9] relates to Malme-3M.
Experiment [10] concerns NCI-H522.
Experiment [11] deals with OVCAR-3.
Experiment [12] concerns OVCAR-4.
Experiment [13] relates to OVCAR-5.
For experiment [14], the system named is PC-3.
For experiment [15], the system named is SNB-19.
Experiment [16] relates to SNB-75.
In experiment [17] the test system is T47D.
The subject of experiment [18] is U-251.
The subject of experiment [19] is UACC-62.

As usually defined, the GI50 is the concentration at which growth is held to half of that of the control. As to `CCOC(=O)/C(C#N)=C(/NNc1ccccc1)c1ccncc1C(=O)O`, the GI50 was > 100 µM (inactive) in [1]; > 52.7 µM (inactive) in experiment [2]; > 100 µM (inactive) in [3]; > 73.1 µM (inactive) in experiment [4]; above 22.7 µM in [5]; 3.4 µM (inactive) in experiment [6]. In addition, the GI50 was 5.66 µM (inactive) in [7]; > 64.9 µM (inactive) in experiment [8]; > 100 µM (inactive) in [9]; > 100 µM (inactive) in experiment [10]; > 100 µM (inactive) in [11]; > 100 µM (inactive) in experiment [12]. The GI50 is > 72.1 µM (inactive) in [13]; 7.08 µM (inactive) in experiment [14]; > 100 µM (inactive) in experiment [15]; > 100 µM (inactive) in experiment [16]; 8.17 µM (inactive) in [17]; > 100 µM (inactive) in experiment [18]. Moreover, the GI50 in experiment [19] is 5.15 µM (inactive).
`NS(=O)(=O)c1nnc(NS(=O)(=O)c2ccccc2[N+](=O)[O-])s1`: the GI50 in experiment [1] is > 100 µM (inactive); in experiment [2], > 100 µM (inactive); in experiment [3], > 100 µM (inactive); in experiment [4] it was > 100 µM (inactive); in experiment [5], above 100 µM; in [6] it was > 100 µM (inactive). The GI50 in experiment [7], in experiment [8], in experiment [9], in experiment [10], in [11] and in experiment [12] was > 100 µM (inactive) in each case. Besides, the GI50 in experiment [13], in experiment [14], in [15], in experiment [16], in experiment [17] and in experiment [18] was > 100 µM (inactive) each time. The GI50 in experiment [19] was > 100 µM (inactive).
Turning to `CSc1c(C#N)c2n(c3ccccc3[n+]2C)c2ncccc12`, the GI50 was 17.7 µM (inactive) in [1]; 12.5 µM (inactive) in experiment [2]; 28.4 µM (inactive) in experiment [3]; 21 µM (inactive) in experiment [4]; 21.5 µM in experiment [5]; 22 µM (inactive) in experiment [6]. Besides, the GI50 was 21.2 µM (inactive) in experiment [7]; 15 µM (inactive) in [8]; 19.4 µM (inactive) in experiment [9]; 19.5 µM (inactive) in experiment [10]; 22.2 µM (inactive) in experiment [11]; 30.8 µM (inactive) in experiment [12]. Further, the GI50 in experiment [13] was 23.2 µM (inactive); in experiment [14], 19.1 µM (inactive); in [15], 32.6 µM (inactive); in experiment [16], 17.3 µM (inactive); in [17], 25.8 µM (inactive); in experiment [18] it was 24 µM (inactive). The GI50 in experiment [19] is 17.6 µM (inactive).
For the compound `CC(C)(C)C1CCC2c3c([nH]c4ccccc34)C3C(=O)N(c4cccc(Cl)c4)C(=O)C3C2C1` (centres undefined), the GI50 in experiment [1] was 8.28 µM (inactive); in experiment [2] it was 14.2 µM (inactive); in experiment [3], 21.1 µM (inactive); in [4] it was 17.8 µM (inactive); in experiment [5], 14.5 µM; in experiment [6] it was 5.01 µM (inactive). In addition, the GI50 in experiment [7] is 9.98 µM (inactive); in [8], 2.06 µM (inactive); in experiment [9], 16.6 µM (inactive); in experiment [10], 15.8 µM (inactive); in [11] it was 15.1 µM (inactive); in experiment [12], 14.6 µM (inactive). Also, the GI50 in experiment [13] is 13.5 µM (inactive); in [14], 7.1 µM (inactive); in experiment [15], 33.5 µM (inactive); in experiment [16], 14.1 µM (inactive); in experiment [17], 9.16 µM (inactive); in experiment [18], 13.9 µM (inactive). The GI50 in [19] is 12.9 µM (inactive).
On to `CC(=O)c1ccc2c(c1)CC1(C2)Cc2ccccc2C1=O` (centres undefined), for which the GI50 in experiment [1] is 77.8 µM (inactive); in [2] it was 37.8 µM (inactive); in [3], 43.4 µM (inactive); in [4] it was 33.1 µM (inactive); in experiment [5], 51.5 µM; in experiment [6] it was 43.3 µM (inactive). Also, the GI50 is 31 µM (inactive) in experiment [7]; 26.7 µM (inactive) in experiment [8]; 28.4 µM (inactive) in experiment [9]; 21.5 µM (inactive) in experiment [10]; 50.9 µM (inactive) in experiment [11]; 31.4 µM (inactive) in experiment [12]. The GI50 is > 100 µM (inactive) in [13]; 35.2 µM (inactive) in [14]; > 100 µM (inactive) in experiment [15]; 34.5 µM (inactive) in experiment [16]; 25.6 µM (inactive) in [17]; 67.5 µM (inactive) in experiment [18]. Moreover, the GI50 in experiment [19] is 55.6 µM (inactive).
In the case of `S=c1ssc2c3ssc(=S)c3n(Cc3ccccc3)c12`, the GI50 in [1] was 37.3 µM (inactive); in experiment [2], > 100 µM (inactive); in [3], > 100 µM (inactive); in experiment [4], > 100 µM (inactive); in experiment [5], 39.3 µM; in experiment [6] it was > 100 µM (inactive). Besides, the GI50 in experiment [7] was > 100 µM (inactive); in experiment [8] it was 81.3 µM (inactive); in experiment [9], > 100 µM (inactive); in experiment [10] it was 83.2 µM (inactive); in [11] it was > 100 µM (inactive); in [12] it was > 100 µM (inactive). The GI50 in experiment [13] is > 100 µM (inactive); in [14], 74.6 µM (inactive); in [15], > 100 µM (inactive); in experiment [16], 98.4 µM (inactive); in [17], 22.3 µM (inactive); in experiment [18], 60.5 µM (inactive). Moreover, the GI50 in experiment [19] is 40.3 µM (inactive).
For `CNC(=O)N(C1=NCC(C)S1)c1ccc(C)c(C)c1` (centres undefined), the GI50 in [1] was 4.74 µM (inactive); in [2], 6.52 µM (inactive); in experiment [3], 27.3 µM (inactive); in experiment [4], 2.7 µM (inactive); in [5], 2.77 µM; in experiment [6] it was 3.15 µM (inactive). Besides, the GI50 was 1.13 µM (inactive) in experiment [7]; 2.77 µM (inactive) in [8]; 4.15 µM (inactive) in [9]; 4.82 µM (inactive) in [10]; 2.4 µM (inactive) in experiment [11]; 13.6 µM (inactive) in experiment [12]. Also, the GI50 in experiment [13] is 15.6 µM (inactive); in [14], 3.98 µM (inactive); in [15] it was 6.64 µM (inactive); in [16], 1.31 µM (inactive); in experiment [17], 7.33 µM (inactive); in experiment [18], 3.59 µM (inactive). For the same compound, in [19], the GI50 was 3.56 µM (inactive).
For `O=C1C2CC[C@@H]3C(=O)C(Cl)(Cl)[C@@H]3CCC2C1(Cl)Cl` (some centres undefined), the GI50 in experiment [1] is > 100 µM (inactive); in [2], > 100 µM (inactive); in experiment [3], > 100 µM (inactive); in experiment [4], > 100 µM (inactive); in [5] it was 98.6 µM; in experiment [6], > 100 µM (inactive). For the same compound, the GI50 in experiment [7] was > 100 µM (inactive); in experiment [8] it was 42.8 µM (inactive); in experiment [9], > 100 µM (inactive); in experiment [10], > 58.7 µM (inactive); in [11], 46.6 µM (inactive); in [12], > 100 µM (inactive). Moreover, the GI50 in experiment [13], in [14], in [15], in [16], in [17] and in experiment [18] was > 100 µM (inactive) each time. In experiment [19], the GI50 was > 86.9 µM (inactive).
For `O=[N+]([O-])C(/C(Cl)=C(\Cl)Br)=C(/Cl)SCc1ccccc1`, the GI50 in experiment [1] is 2.08 µM (inactive); in experiment [2], 16.3 µM (inactive); in experiment [3] it was 2.56 µM (inactive); in experiment [4] it was 1.8 µM (inactive); in experiment [5] it was 2.9 µM; in experiment [6], 14.4 µM (inactive). Also, the GI50 is 2.77 µM (inactive) in experiment [7]; 2.95 µM (inactive) in experiment [8]; 6.31 µM (inactive) in [9]; 1.89 µM (inactive) in experiment [10]; 2.74 µM (inactive) in [11]; 3.87 µM (inactive) in [12]. Moreover, the GI50 in experiment [13] is 12.5 µM (inactive); in [14] it was 3.84 µM (inactive); in experiment [15] it was 17.8 µM (inactive); in experiment [16] it was 3.26 µM (inactive); in [17], 3.68 µM (inactive); in experiment [18], 6.46 µM (inactive). Moreover, the GI50 in [19] is 3.2 µM (inactive).
In the case of `O=C(c1ccccc1)N1CCN(C(=S)N(C(=O)c2ccccc2)c2ccccc2)C1=S`, the GI50 in experiment [1] is 2.09 µM (inactive); in experiment [2] it was 5.26 µM (inactive); in [3] it was 3.85 µM (inactive); in [4] it was 2.47 µM (inactive); in experiment [5] it was 2.18 µM; in experiment [6], 5.71 µM (inactive). The GI50 in [7] is 3.17 µM (inactive); in [8], 3.13 µM (inactive); in [9], 5.13 µM (inactive); in experiment [10], 1.87 µM (inactive); in [11] it was 4.21 µM (inactive); in [12], 4.6 µM (inactive). Moreover, the GI50 in [13] was 15.9 µM (inactive); in experiment [14] it was 6.59 µM (inactive); in experiment [15] it was 13.3 µM (inactive); in experiment [16], 2.16 µM (inactive); in experiment [17], 4.68 µM (inactive); in experiment [18] it was 6.79 µM (inactive). In addition, the GI50 in [19] was 3.76 µM (inactive).
In the case of `Nc1nn2c(C(Br)Br)cc(C(Br)Br)nc2c1[N+](=O)[O-]`, the 50% growth inhibitory concentration (GI50) is 0.336 µM (active) in experiment [1]; 2.43 µM (inactive) in [2]; 0.766 µM (active) in experiment [3]; 0.5 µM (active) in [4]; 1.07 µM in experiment [5]; 1.32 µM (inactive) in experiment [6]. In addition, the GI50 was 0.627 µM (active) in [7]; 0.826 µM (active) in experiment [8]; 0.738 µM (active) in experiment [9]; 0.37 µM (active) in [10]; 0.437 µM (active) in experiment [11]; 1.45 µM (inactive) in experiment [12]. The GI50 was 1.72 µM (inactive) in experiment [13]; 1.36 µM (inactive) in [14]; 1.61 µM (inactive) in experiment [15]; 1.08 µM (active) in experiment [16]; 0.667 µM (active) in experiment [17]; 0.668 µM (active) in experiment [18]. In addition, the GI50 in experiment [19] was 1.81 µM (inactive).
